Results: paper PMC12892976, “Alkylation-based optimization of antifungal FPPS inhibitors yields a potent, broad-spectrum lipophilic zoledronate derivative” (mBio, 2025)
Values after ≈ are worked out from the molar mass of the structure shown. Where two headings read alike, the source gives them in different places.

What was measured:
[1] = test system: Nannizzia gypsea; assay: MIC broth microdilution (CLSI); format: cell-based; details: Nannizzia gypsea R-131
Procedure: (§1) Antifungal susceptibility was determined by broth microdilution according to the CLSI guidelines described in M27-Ed4 ([16]).

[2] = test system: Aspergillus fumigatus; assay: MIC/MFC broth microdilution (CLSI); details: ATCC204305
Procedure: (§2) Antifungal susceptibility was determined by broth microdilution according to the CLSI guidelines described in M27-Ed4 ([16]). […] MFC was determined by back-plating drug-treated cultures from MIC broths onto SDA plates. The MFC was defined as the lowest concentration from which no colonies could be cultured.

[3] = test system: Aspergillus niger; assay: MIC broth microdilution (CLSI); format: cell-based; details: Aspergillus niger 111
Procedure: as §1

[4] = test system: Candida albicans; assay: MIC/MFC broth microdilution (CLSI); format: cell-based; details: Candida albicans SC5314
Procedure: as §2

[5] = test system: eight fungal species; assay: MIC/MFC summary across the eight fungal species of Table 1; format: cell-based
Procedure: The antifungal activity of these compounds was evaluated according to CLSI guidelines ([16]).

[6] = test system: Cryptococcus neoformans; assay: MIC/MFC broth microdilution (CLSI);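 note: susceptibility testing followed the CLSI M27-Ed4 broth microdilution document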
Procedure: as §2

[7] = test system: Aspergillus flavus; assay: MIC/MFC broth microdilution (CLSI); details: ATCC204304
Procedure: as §2

[8] = test system: Cryptococcus deuterogattii; assay: MIC/MFC broth microdilution (CLSI);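 note: broth microdilution per CLSI M27-Ed4. MFC is the lowest concentration yielding no colonies when MIC broths are subcultured onto SDA plates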
Procedure: as §2

[9] = test system: Candida albicans; assay: checkerboard drug interaction (FICI, MICc); format: cell-based; details: for INH FD (MIC-MICc fold decrease): fold decrease of inhibitor MIC;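 for all read-outs here: antifungal plus FPPS inhibitor combinations on Candida albicans tested by a simplified diagonal checkerboard screen, with FICI calculated under the Loewe additivity model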
Procedure: (§3) Drug interactions between antifungals and FPPS inhibitors were investigated using a simplified checkerboard diagonal screening method ([45]). […] FICIs were determined according to the Loewe additivity model ([17]).

[10] = test system: Candida glabrata; assay: checkerboard drug interaction (FICI, MICc); format: cell-based; details: for INH FD (MIC-MICc fold decrease): fold decrease of inhibitor MIC;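 for all read-outs here: simplified diagonal checkerboard screen pairing antifungals with FPPS inhibitors, FICI calculated under the Loewe additivity model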
Procedure: as §3

[11] = test system: Candida glabrata; assay: MIC/MFC broth microdilution (CLSI);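 note: broth microdilution following CLSI M27-Ed4, MFC taken as the lowest drug level yielding no growth once MIC wells were subcultured on SDA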
Procedure: as §2

[12] = test system: Trichophyton rubrum; assay: MIC/MFC broth microdilution (CLSI)
Procedure: as §2

[13] = test system: Trichophyton rubrum; assay: checkerboard drug interaction (FICI, MICc); format: cell-based;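 note: simplified diagonal checkerboard screen pairing azole antifungals with FPPS inhibitors, FICI calculated under the Loewe additivity model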
Procedure: as §3

[14] = test system: Cryptococcus deuterogattii; assay: checkerboard drug interaction (FICI, MICc); format: cell-based; details: for INH FD (MIC-MICc fold decrease): fold decrease of inhibitor MIC;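 for all read-outs here: simplified diagonal checkerboard screen pairing antifungal drugs with FPPS inhibitors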
Procedure: as §3

[15] = test system: eight fungal species; assay: checkerboard interaction with azoles, summary across the eight species; format: cell-based; details: across all species tested
Text: Synergy between lipophilic FPPS inhibitors and azole antifungals was investigated by determining the fractional inhibitory concentration index (FICI) (Fig. 2; Table S1 Fig. S1) ([17]). […]. Derivatives PLA9 and 11, and PDA9, 11, and 12 antagonized azoles in C. albicans, C. neoformans, and C. deuterogattii, yet were largely synergistic in C. glabrata and S. cerevisiae. […].

[16] = C. albicans, FLC:INH combination
[17] = C. albicans, ITR:INH combination
[18] = C. albicans, KET:INH combination
[19] = C. glabrata, FLC:INH combination
[20] = C. glabrata, ITR:INH combination
[21] = C. glabrata, KET:INH combination
[22] = C. deuterogattii, FLC:INH combination
[23] = C. deuterogattii, ITR:INH combination
[24] = C. deuterogattii, KET:INH combination

## O=P(O)(O)C(O)(Cn1ccnc1)P(=O)(O)O [ZOL, zoledronate]
[1]
  MIC / MEC: 256 µg/mL (≈ 941 µM)
[2]
  MFC: > 128 µg/mL
  MIC: > 128 µg/mL
  MIC / MEC: >256 µg/mL
[3]
  MIC / MEC: >256 µg/mL
[4]
  MFC: > 128 µg/mL
  MIC: 128 µg/mL (≈ 470 µM)
  MIC / MEC: 128 µg/mL (≈ 470 µM)
[5]; across eight species
  Geometric mean MFC: 181.0 µg/mL
  Geometric mean MIC: 98.7 µg/mL
[5]; across eight species, read-out: Geometric mean MFC
  MFC: 181 µg/mL (≈ 665 µM)
[5]; geometric mean across eight species, read-out: GM fungal MIC
  MIC: 98.7 µg/mL (≈ 363 µM)
[5]; read-out: Geometric mean MIC
  MIC: 98.7 µg/mL (≈ 363 µM)
[6]; Cryptococcus neoformans
  MFC: > 128 µg/mL
  MIC: 32 µg/mL (≈ 118 µM)
[6]; Cryptococcus neoformans H99
  MIC / MEC: 32 µg/mL (≈ 118 µM)
[7]
  MFC: > 128 µg/mL
  MIC: > 128 µg/mL
  MIC / MEC: >256 µg/mL
[8]; Cryptococcus deuterogattii
  MFC: 128 µg/mL (≈ 470 µM)
  MIC: 128 µg/mL (≈ 470 µM)
[8]; Cryptococcus deuterogattii R265
  MIC / MEC: 128 µg/mL (≈ 470 µM)
[9]; 5FC:ZOL
  FICI: 1.13
[9]; AMB:ZOL
  FICI: 1.25
[9]; [16]
  FICI: 0.53
  INH FD (MIC-MICc fold decrease): 32
[9]; C. albicans, FLC:INH combination, MIC of the inhibitor in combination with FLC
  INH MICc: 8
[9]; C. albicans, FLC:INH combination, fold decrease of FLC MIC
  FLC FD (MIC-MICc fold decrease): 2
[9]; [17]
  FICI: 1.13
  INH FD (MIC-MICc fold decrease): 8
[9]; C. albicans, ITR:INH combination, MIC of the inhibitor in combination with ITR
  INH MICc: 32
[9]; C. albicans, ITR:INH combination, fold decrease of ITR MIC
  ITR FD (MIC-MICc fold decrease): 1
[9]; [18]
  FICI: 1.13
  INH FD (MIC-MICc fold decrease): 8
[9]; C. albicans, KET:INH combination, MIC of the inhibitor in combination with KET
  INH MICc: 32
[9]; C. albicans, KET:INH combination, fold decrease of KET MIC
  KET FD (MIC-MICc fold decrease): 1
[9]; CAS:ZOL
  FICI: 2.17
[9]; FLC:ZOL
  FICI: 0.53
[9]; ITR:ZOL
  FICI: 1.13
[9]; KET:ZOL
  FICI: 1.13
[9]; VOR:ZOL
  FICI: 1.46
[9]; ZOL with 5FC
  bisphosphonate MICc: 16
[9]; ZOL with AMB
  bisphosphonate MICc: 32
[9]; ZOL with CAS
  bisphosphonate MICc: 32
[9]; ZOL with FLC
  bisphosphonate MICc: 8
[9]; ZOL with ITR
  bisphosphonate MICc: 32
[9]; ZOL with KET
  bisphosphonate MICc: 32
[9]; ZOL with VOR
  bisphosphonate MICc: 64
[9]; with FLC, Candida albicans
  FICI: 0.53
[9]; with ITR, Candida albicans
  FICI: 1.13
[9]; with KET, Candida albicans
  FICI: 1.13
[10]; 5FC:ZOL
  FICI: 0.63
[10]; AMB:ZOL
  FICI: 0.63
[10]; [19]
  FICI: 0.09
  INH FD (MIC-MICc fold decrease): 8
[10]; C. glabrata, FLC:INH combination, MIC of the inhibitor in combination with FLC
  INH MICc: 1
[10]; C. glabrata, FLC:INH combination, fold decrease of FLC MIC
  FLC FD (MIC-MICc fold decrease): 16
[10]; [20]
  FICI: 0.16
  INH FD (MIC-MICc fold decrease): 8
[10]; C. glabrata, ITR:INH combination, MIC of the inhibitor in combination with ITR
  INH MICc: 1
[10]; C. glabrata, ITR:INH combination, fold decrease of ITR MIC
  ITR FD (MIC-MICc fold decrease): 8
[10]; [21]
  FICI: 0.31
  INH FD (MIC-MICc fold decrease): 4
[10]; C. glabrata, KET:INH combination, MIC of the inhibitor in combination with KET
  INH MICc: 2
[10]; C. glabrata, KET:INH combination, fold decrease of KET MIC
  KET FD (MIC-MICc fold decrease): 4
[10]; CAS:ZOL
  FICI: 2.05
[10]; FLC:ZOL
  FICI: 0.09
[10]; ITR:ZOL
  FICI: 0.16
[10]; KET:ZOL
  FICI: 0.31
[10]; VOR:ZOL
  FICI: 0.38
[10]; ZOL with 5FC
  bisphosphonate MICc: 1
[10]; ZOL with AMB
  bisphosphonate MICc: 1
[10]; ZOL with CAS
  bisphosphonate MICc: 1
[10]; ZOL with FLC
  bisphosphonate MICc: 1
[10]; ZOL with ITR
  bisphosphonate MICc: 1
[10]; ZOL with KET
  bisphosphonate MICc: 2
[10]; ZOL with VOR
  bisphosphonate MICc: 1
[10]; with FLC, Candida glabrata
  FICI: 0.09
[10]; with ITR, Candida glabrata
  FICI: 0.16
[10]; with KET, Candida glabrata
  FICI: 0.31
[11]; Candida glabrata CBS138 (ATCC 2001)
  MIC / MEC: 8 µg/mL (≈ 29.4 µM)
[11]; Nakaseomyces glabratus, CBS138
  MFC: 32 µg/mL (≈ 118 µM)
  MIC: 8 µg/mL (≈ 29.4 µM)
[12]; Trichophyton rubrum
  MFC: > 128 µg/mL
  MIC: 128 µg/mL (≈ 470 µM)
[12]; Trichophyton rubrum R-218
  MIC / MEC: 128 µg/mL (≈ 470 µM)
[13]; 5FC:ZOL
  FICI: 2
[13]; AMB:ZOL
  FICI: ≥4
[13]; CAS:ZOL
  FICI: 0.5
[13]; FLC:ZOL
  FICI: 0.5
[13]; ITR:ZOL
  FICI: 0.75
[13]; KET:ZOL
  FICI: 0.38
[13]; T. rubrum, Fractional Inhibitory Concentration Index, fluconazole + inhibitor
  FICI (FLC:INH): 0.5
[13]; T. rubrum, Fractional Inhibitory Concentration Index, itraconazole + inhibitor
  FICI (ITR:INH): 0.75
[13]; T. rubrum, Fractional Inhibitory Concentration Index, ketoconazole + inhibitor
  FICI (KET:INH): 0.38
[13]; T. rubrum, MIC of the inhibitor in combination with fluconazole
  INH MICc (FLC:INH): 32
[13]; T. rubrum, MIC of the inhibitor in combination with itraconazole
  INH MICc (ITR:INH): 64
[13]; T. rubrum, MIC of the inhibitor in combination with ketoconazole
  INH MICc (KET:INH): 16
[13]; T. rubrum, MIC-MICc fold decrease of fluconazole, negative = increase
  FLC FD (FLC:INH): 4
[13]; T. rubrum, MIC-MICc fold decrease of itraconazole, negative = increase
  ITR FD (ITR:INH): 4
[13]; T. rubrum, MIC-MICc fold decrease of ketoconazole, negative = increase
  KET FD (KET:INH): 4
[13]; T. rubrum, MIC-MICc fold decrease of the inhibitor, with fluconazole
  INH FD (FLC:INH): 4
[13]; T. rubrum, MIC-MICc fold decrease of the inhibitor, with itraconazole
  INH FD (ITR:INH): 2
[13]; T. rubrum, MIC-MICc fold decrease of the inhibitor, with ketoconazole
  INH FD (KET:INH): 8
[13]; VOR:ZOL
  FICI: 0.38
[13]; ZOL with 5FC
  bisphosphonate MICc: 128
[13]; ZOL with AMB
  bisphosphonate MICc: 256
[13]; ZOL with CAS
  bisphosphonate MICc: 32
[13]; ZOL with FLC
  bisphosphonate MICc: 32
[13]; ZOL with ITR
  bisphosphonate MICc: 64
[13]; ZOL with KET
  bisphosphonate MICc: 16
[13]; ZOL with VOR
  bisphosphonate MICc: 16
[13]; with ITR, Trichophyton rubrum
  FICI: 0.75
[14]; 5FC:ZOL
  FICI: 1.02
[14]; AMB:ZOL
  FICI: 2
[14]; [22]
  FICI: 0.25
  INH FD (MIC-MICc fold decrease): 8
[14]; C. deuterogattii, FLC:INH combination, MIC of the inhibitor in combination with FLC
  INH MICc: 8
[14]; C. deuterogattii, FLC:INH combination, fold decrease of FLC MIC
  FLC FD (MIC-MICc fold decrease): 8
[14]; [23]
  FICI: 0.38
  INH FD (MIC-MICc fold decrease): 8
[14]; C. deuterogattii, ITR:INH combination, MIC of the inhibitor in combination with ITR
  INH MICc: 8
[14]; C. deuterogattii, ITR:INH combination, fold decrease of ITR MIC
  ITR FD (MIC-MICc fold decrease): 4
[14]; [24]
  FICI: 0.31
  INH FD (MIC-MICc fold decrease): 4
[14]; C. deuterogattii, KET:INH combination, MIC of the inhibitor in combination with KET
  INH MICc: 16
[14]; C. deuterogattii, KET:INH combination, fold decrease of KET MIC
  KET FD (MIC-MICc fold decrease): 16
[14]; CAS:ZOL
  FICI: 1.5
[14]; FLC:ZOL
  FICI: 0.25
[14]; ITR:ZOL
  FICI: 0.38
[14]; KET:ZOL
  FICI: 0.31
[14]; VOR:ZOL
  FICI: 0.5
[14]; ZOL with 5FC
  bisphosphonate MICc: 128
[14]; ZOL with AMB
  bisphosphonate MICc: 128
[14]; ZOL with CAS
  bisphosphonate MICc: 64
[14]; ZOL with FLC
  bisphosphonate MICc: 8
[14]; ZOL with ITR
  bisphosphonate MICc: 8
[14]; ZOL with KET
  bisphosphonate MICc: 16
[14]; ZOL with VOR
  bisphosphonate MICc: 32
[14]; with FLC, Cryptococcus deuterogattii
  FICI: 0.25
[14]; with ITR, Cryptococcus deuterogattii
  FICI: 0.38
[14]; with KET, Cryptococcus deuterogattii
  FICI: 0.31
[15]
  effect on azole MIC in combination: consistently reduced the MIC of the azole
